The record followed here is patent publication EP0429987B1, “5,11-Dihydro-6H-dipyrido[3,2-b:2',3'-e] [1,4]diazepines and their use in the prevention or treatment of HIV infection” (priority 1989, dated 1991).

Where two headings read alike, the source gives them in different places.

In the assay the target is T1, HIV-1 RT (Human immunodeficiency virus type 1 group M subtype B, UniProt P03367).
T1 construct: Reverse transcriptase enzyme from the LAV strain of Human Immunodeficiency Virus (HIV-1) (1) was isolated; made in house; host or cells: E. coli JM109, clone pBRTprtl+ in vector pIBI21 (lac promoter, IPTG induction)
The experiment in a line: Reverse Transcriptase (RT) Assay: inhibition of RNA-dependent DNA polymerase activity. It is filed as biochemical. The conditions noted are these: for inhibition at 10 µg/mL: read-out: RT Assay % inhibition @ 10 µg/ml; for inhibition at 1 µM: read-out: RT Assay % inhibition. The source says: Utilizing the Reverse Transcriptase (RT) Assay described below, compounds can be tested for their ability to inhibit the RNA-dependent DNA polymerase activity of HIV-1 RT.
Among the enzymes for which Human Immunodeficiency Virus (HIV-1) encodes is a reverse transcriptase (1), so-named because it transcribes a DNA copy from an RNA template. This activity can be quantitatively measured in a cell-free enzyme assay, which has been previously described (2), and is based upon the observation that reverse transcriptase is able to use a synthetic template [poly r(C) primed with oligo d(G)] to transcribe a radio-labelled, acid-precipitable DNA strand utilizing ^3H-dGTP as a substrate.
Reverse transcriptase enzyme from the LAV strain of Human Immunodeficiency Virus (HIV-1) (1) was isolated from the bacterial strain JM109 (3) expressing the DNA clone pBRTprtl+ (2) which is under the control of the lac promotor in the expression vector pIBI21 (4). An overnight culture grown in 2XYT medium (37°C, 225 rpm) (5) supplemented with 100 µg/ml ampicillin for positive selection is inoculated at a 1:40 dilution into M9 medium supplemented with 10µg/ml thiamine, 0.5% casamino acids, and 50 µg/ml ampicillin (5). The culture is incubated (37°C, 225 rpm) until it reaches an OD540 of 0.3-0.4. At that time the repressor inhibitor IPTG (isopropyl β-D-thiogalactopyranoside) is added to 0.5mM, and the mixture is incubated for 2 additional hours. Bacteria are pelleted, resuspended in a 50mM Tris, 0.6mM EDTA, 0.375M NaCl buffer and digested by the addition of lysozyme (1mg/ml) for 30 minutes on ice. The cells are lysed by the addition of 0.2% NP-40 and brought to 1M NaCl.
After removal of the insoluble debris by centrifugation, the protein is precipitated by the addition of 3 volumes of saturated aqueous ammonium sulfate. The enzyme is pelleted, resuspended in RT buffer (50mM Tris pH 7.5, 1mM EDTA, 5mM DTT, 0.1% NP-40, 0.1M NaCl, and 50% glycerol), and stored at -70°C for further use.
The 2X concentrated stock reaction mixture is aliquoted and stored at -20°C. […] This enzyme assay has been adapted to a 96 well microtiter plate system, and has been previously described (6). Tris buffer (50 mM, pH 7.4), vehicle (solvent diluted to match the compound dilution), or compounds in vehicle are dispensed into 96-well microtiter plates (10µl/well; 3 wells/ compound). The HIV-1 RT enzyme is thawed, diluted in 50mM Tris pH 7.4 so that fifteen µl of diluted enzyme contain 0.001 Unit (one unit is that amount of enzyme to transform 1 micromole of substrate per minute at 25°C), and fifteen µl are dispensed per well. Twenty µl of 0.12-0.5M EDTA are added to the first three wells of the microtiter plate. EDTA chelates the Mg^++ present and prevents reverse transcription. This group serves as background polymerization which is subtracted from all other groups. Twenty-five µl of the 2X reaction mixture are added to all wells and the assay is allowed to incubate at room temperature for 60 minutes. The assay is terminated by precipitating the DNA in each well with 50µl of 10% trichloracetic acid (TCA) (10% w/v) in sodium pyrophosphate (1% w/v). The microtiter plate is incubated for 15 minutes at 4°C and the precipitate is fixed onto #30 glass fiber paper (Schleicher & Schuell) using a Skatron semi-automatic harvester. The filters are then washed with additional TCA (5%) containing sodium pyrophosphate (1%), rinsed with aqueous ethanol (70%), dried, and transferred to scintillation vials (6). Each vial receives 2 mls of scintillation cocktail and is counted in a Beckman beta counter.
The calculation for percent inhibition is as follows: %inhibition =(CPM Mean Test Value - CPM Mean Control Value X100)/(CPM Mean Control Value) [formula]

Take `CCN1c2ncccc2C(=O)Nc2c(C(F)(F)F)cc(C)nc21` [Example 1, 5,11-Dihydro-11-ethyl-2-methyl-4-trifluoromethyl-6H-dipyrido-[3,2-b:2',3'-e][1,4]diazepin-6-one]: the inhibition at 10 µg/mL came to 100%.
With `Cc1ccnc2c1N(O)C(=O)c1cccnc1N2C1CC1` [Example 4, 11-Cyclopropyl-5,11-dihydro-5-hydroxy-4-methyl-6H-dipyrido[3,2-b:2',3'-e][1,4]diazepin-6-one], the inhibition at 1 µM (@ 1µM (footnote *)) worked out at 36%.
Still for that read-out and setting: the figure for `CCN1c2ncccc2C(=O)N(C)c2cc(Cl)c([N+](=O)[O-])nc21` [Example 8] is 40%; for `CCc1ccnc2c1NC(=O)c1cccnc1N2C1CCC1` [Example 9] it is 75%.
For the compound `Cc1cc(C)c2c(n1)N(C1CC1)c1ncccc1C(=O)N2` [Example 10], the inhibition at 1 µM came out at 85%.
As to `CCc1ccnc2c1NC(=O)c1cccnc1N2C1CC1` [Example 11], the inhibition at 1 µM (@ 1µM (footnote *)) was 76%.
Regarding `CCN1c2ncccc2C(=O)Nc2c(C)cc(Cl)nc21` [Example 12], the inhibition at 1 µM (@ 1µM (footnote *)) is 91%.
The same measure, in the same setting: for `Cc1cc(Cl)nc2c1NC(=O)c1cccnc1N2C1CC1` [Example 13] the value was 90%.
As for `CN1C(=O)c2cccnc2N(C(C)(C)C)c2ncccc21` [Example 15], the inhibition at 10 µg/mL was 87%.
With `CCN1c2ncc(N=[N+]=[N-])cc2C(=O)N(C)c2cccnc21` [Example 16], the inhibition at 1 µM (@ 1µM (footnote *)) is 63%.
On to `CC(C)N1c2ncccc2NC(=O)c2cccnc21` [Example 17], for which the inhibition at 10 µg/mL worked out at 99%.
On the same count and under the same terms, the figure for `O=C1Nc2cccnc2N(C2CC2)c2ncccc21` [Example 18] is 99%.
Turning to `Cc1ccnc2c1N(C)C(=O)c1cccnc1N2C1CC1` [Example 19], the inhibition at 1 µM (@ 1µM (footnote *)) turned out to be 50%.
On to `CN1C(=O)c2cccnc2N(CC2CC2)c2ncccc21` [Example 20], for which the inhibition at 10 µg/mL amounted to 93%.
Take `CC[C@@H](C)N1c2ncccc2NC(=O)c2cccnc21` [Example 21]: the inhibition at 10 µg/mL stood at 85%.
Same read-out and setting: the figure for `CCN1c2ncccc2C(=O)N(C)c2cc(C)c(C)nc21` [Example 22] is 100%; for `CC[C@H](C)N1c2ncccc2NC(=O)c2cccnc21` [Example 23] it is 88%.
In the case of `O=C1Nc2cccnc2N(C2CCCC2)c2ncccc21` [Example 24], for the setting “@ 1µM (footnote *)”, the inhibition at 1 µM worked out at 35%.
The same measure, in the same setting: the figure for `CCN1c2ncccc2C(=O)N(C)c2c(C)cc(N3CCCC3)nc21` [Example 25] is 94%; for `CCN1c2ncccc2C(=O)N(C)c2ccc(N3CC=CC3)nc21` [Example 26] it is 86%; for `CCN1c2ncccc2NC(=O)c2c(C)cc(C)nc21` [Example 27] it is 2%.
In the case of `CN1C(=O)c2cccnc2N(C2CCCC2)c2ncccc21` [Example 28], the inhibition at 1 µM (@ 1µM (footnote *)) amounted to 34%.
As to `COCN1C(=O)c2cccnc2N(COC)c2nccc(C)c21` [Example 29], the inhibition at 10 µg/mL was 0%.
Consider `CCN1c2ncccc2C(=O)Nc2c(C(F)(F)F)cc(Cl)nc21` [Example 30], for which the inhibition at 10 µg/mL was found to be 100%.
`O=C1Nc2cccnc2N(C2CCC2)c2ncccc21` [Example 31]: the inhibition at 10 µg/mL worked out at 99%.
On the same count and under the same terms, for `CN1C(=O)c2cccnc2N(C2CCC2)c2ncccc21` [Example 32] the value was 100%.
As for `O=C1Nc2c(Cl)ccnc2N(C2CC2)c2ncccc21` [Example 33], the inhibition at 1 µM (@ 1µM (footnote *)) turned out to be 83%.
`COc1ccnc2c1NC(=O)c1cccnc1N2C1CC1` [Example 35]: the inhibition at 10 µg/mL is 91%.
Consider `CCN1c2ncccc2C(=O)N(C)c2ccc(N(C)Cc3ccc(OC)cc3)nc21` [Example 36], for which the inhibition at 1 µM (@ 1µM (footnote *)) is 64%.
For `C=CCNc1ccc2c(n1)N(CC)c1ncccc1C(=O)N2C` [Example 37], the inhibition at 1 µM (@ 1µM (footnote *)) amounted to 70%.
Still for that read-out and setting: for `O=C1Nc2c(CO)ccnc2N(C2CC2)c2ncccc21` [Example 38] the value was 34%.
As to `CCN1c2ncc([N+](=O)[O-])cc2C(=O)N(C)c2cc([N+](=O)[O-])cnc21` [Example 39], the inhibition at 1 µM amounted to 0%.
Consider `CCN1c2ncc([N+](=O)[O-])cc2C(=O)N(C)c2cc(Cl)c([N+](=O)[O-])nc21` [Example 40], for which the inhibition at 1 µM is 0%.
With `Cc1ccnc2c1NC(=O)c1c(O)ccnc1N2C1CC1` [Example 41], for the setting “@ 1µM (footnote *)”, the inhibition at 1 µM turned out to be 32%.
For `Cc1ccnc2c1NC(=S)c1cccnc1N2C1CC1` [Example 42, 5,11 Dihydro-6H-11-cyclopropyl-4-methyl-dipyrido[3,2-b:2',3'-e][1,4]diazepin-6-thione], the inhibition at 1 µM turned out to be 90%.
As for `CN1C(=O)c2cccnc2N(C#N)c2ncccc21` [Example 43], the inhibition at 10 µg/mL was 44%.
For the compound `CN1C(=O)c2cccnc2N(C2CCCCC2)c2ncccc21` [Example 44], the inhibition at 1 µM (@ 1µM (footnote *)) is 90%.
Same read-out and setting: the figure for `O=C1Nc2cccnc2N(C2CCCCC2)c2ncccc21` [Example 45] is 35%.
`CCN1c2ncccc2NC(=O)c2c1nc(C)c(Cl)c2C` [Example 46]: the inhibition at 10 µg/mL worked out at 44%.
In the case of `CN1C(=O)c2cccnc2N(S(C)(=O)=O)c2ncccc21` [Example 48], the inhibition at 10 µg/mL was 77%.
Take `CCN1c2ncccc2C(=O)N(C)c2cc(Cl)c(N)nc21` [Example 49]: the inhibition at 1 µM (@ 1µM (footnote *)) was found to be 52%.
The same measure, in the same setting: for `C=CCN1C(=O)c2cccnc2N(C2CC2)c2nccc(C)c21` [Example 50] the value was 44%.
Same read-out and setting: for `CCN1c2ncc(N)cc2C(=O)N(C)c2cc(N)cnc21` [Example 51] the value was 20%; for `C=COC(=O)N1C(=O)c2cccnc2N(C2CC2)c2nccc(C)c21` [Example 52], 72%; for `CON1C(=O)c2cccnc2N(C2CC2)c2nccc(C)c21` [Example 53], 17%.
The compound `CC(=O)N1C(=O)c2cccnc2N(C2CC2)c2nccc(C)c21` [Example 54] displayed an inhibition at 0.5 µM (@ 0.5µM) of 30%.
Consider `CCN1c2ncccc2C(=O)N(C)c2ccc(NCc3ccc(OC)cc3)nc21` [Example 55], for which the inhibition at 1 µM (@ 1µM (footnote *)) stood at 61%.
Same read-out and setting: for `CCN1c2ncccc2C(=O)N(C)c2ccc(N3CCOCC3)nc21` [Example 56] the value was 68%; for `CCN1c2ncccc2C(=O)N(C)c2ccc(N3CCCCC3)nc21` [Example 57], 66%.
As for `N#Cc1ccnc2c1NC(=O)c1cccnc1N2C1CC1` [Example 58], for the setting “@ 1.25µM (footnote +)”, the inhibition at 1.25 µM came out at 37%.
`CN(C)CCN1C(=O)c2cccnc2N(C2CC2)c2ncccc21` [Example 59]: for the setting “@ 1µM (footnote *)”, the inhibition at 1 µM was determined as 8%.
Still for that read-out and setting: for `CCN1c2ncccc2C(=O)N(C)c2ccc(N(C)C)nc21` [Example 60] the value was 90%; for `CCNc1ccc2c(n1)N(CC)c1ncccc1C(=O)N2C` [Example 61], 75%; for `CCN1c2ncc([N+](=O)[O-])cc2C(=O)N(C)c2cccnc21` [Example 62], 0%.
Same read-out and setting: for `CCN1c2nc(N(C)C)ccc2NC(=O)c2cccnc21` [Example 63] the value was 98%.
The same measure, in the same setting: for `CCN1c2ncccc2C(=O)Nc2c1nc(N1CCCC1)c(Cl)c2C` [Example 64] the value was 94%; for `CCN1c2ncc(N)cc2C(=O)N(C)c2cccnc21` [Example 65, 8-Amino-5,11-dihydro-11-ethyl-5-methyl-6H-dipyrido[3,2-b:2',3'-e] [1,4]diazepin-6-one hemihydrate], 82%.
